Data as given in patent US6667413B2, “Uracil compounds and use thereof” (Sumitomo Chemical Company, Limited, priority 1999, dated 2003).

Assays:
Assay type in all cases: in vivo
[1] = test system: Ivyleaf morningglory (Ipomoea hederacea); experiment: Test Example 2: soil surface treatment, herbicidal activity; conditions: sprayed over the surface of the soil, 500 g/ha, 7 days after application
Source text: (§1) A cylindrical plastic pot having a diameter of 10 cm and a depth of 10 cm was filled with soil and then seeded with Ivyleaf morningglory (Ipomoea hederacea), velvetleaf (Abutilon theophrasti) and barnyardgrass (Echinochloa crus-galli). Then, each of the compounds 1-1,2-1 and 3-1 was formulated into an emulsifiable concentrate according to Formulation Example 2 and then diluted to the prescribed amount with water, and the dilution was uniformly sprayed over the surface of the soil with a sprayer at a rate of 1000 liters per hectare. After the application, the test plants were grown in the greenhouse for 7 days, and the herbicidal activity of the applied composition was examined.

[2] = test system: velvetleaf (Abutilon theophrasti); experiment: as above; conditions: sprayed over the surface of the soil, 500 g/ha, 7 days after application
Source text: as §1

[3] = test system: barnyardgrass (Echinochloa crus-galli); experiment: as above; conditions: sprayed over the surface of the soil, 500 g/ha, 7 days after application
Source text: as §1

[4] = test system: Ivyleaf morningglory (Ipomoea hederacea); experiment: Test Example 1: foliar treatment, herbicidal activity; conditions: foliar spray, 125 g/ha, 7 days after application
Protocol: (§2) A cylindrical plastic pot having a diameter of 10 cm and a depth of 10 cm was filled with soil and then seeded with Ivyleaf morningglory (Ipomoea hederacea), velvetleaf (Abutilon theophrasti), barnyardgrass (Echinochloa crus-galli) and blackgrass (Alopecurus myosuroides). These test plants were grown in a greenhouse for 9 days. Then, each of compounds 1-1,2-1, 3-1,3-2, 3-11 and 3-12 was formulated into an emulsifiable concentrate according to Formulation Example 2 and then diluted to the prescribed amount with water containing a spreading agent and the dilution was uniformly sprayed over the foliage of the test plants with a sprayer at a rate of 1000 liters per hectare After the application, the test plants were grown in the greenhouse for 7 days, and the herbicidal activity of the applied composition was determined.

[5] = test system: velvetleaf (Abutilon theophrasti); experiment: as above; conditions: foliar spray, 125 g/ha, 7 days after application
Protocol: as §2

[6] = test system: barnyardgrass (Echinochloa crus-galli); experiment: as above; conditions: foliar spray, 125 g/ha, 7 days after application
Protocol: as §2

[7] = test system: blackgrass (Alopecurus myosuroides); experiment: as above; conditions: foliar spray, 125 g/ha, 7 days after application
Protocol: as §2

[8] = test system: Johnsongrass (Sorghum halepense); experiment: Test Example 6: foliar treatment, herbicidal activity index; set-up: key: 0: no or little difference in the degree of germination or growth between the treated and the untreated tested plants at the time of examination; 10: the test plants died complete or their germination or growth was completely inhibited; conditions: foliar spray, 4 days after application, index 0 to 10
Protocol: (§3) A plastic pot (27 cm×19 cm×7 cm) was filled with soil and then seeded with Johnsongrass (Sorghum halepense), Giant foxtail (Setaria faberi), barnyardgrass (Echinochloa crus-galli), large crabgrass (Digitaria sanguinalis), Broadleaf signalgrass (Brachiaria platyphylla) and wild oat (Avena fatua). These test plants were grown in a greenhouse for 25 days. After then, each of the compounds 3-11, 4-22, B and C was formulated into an emulsifiable concentrate according to Formulation Example 2 and then diluted to the prescribed amount with water containing a spreading agent and the dilution was uniformly sprayed over the foliage of the test plants with a sprayer at a rate of 1000 liters per hectare. After the application, the test plants were grown in the greenhouse for 4 days, and the herbicidal activity was examined. (In the Table 9, the test plants are shown as follows. Johnsongrass: J, Giant foxtail: GF, Barnyardgrass: B Large crabgrass: LC, Broadleaf signalgrass: BC wild oat: W

[9] = test system: large crabgrass (Digitaria sanguinalis); experiment: as above; set-up: key: 0: no or little difference in the degree of germination or growth between the treated and the untreated tested plants at the time of examination; 10: the test plants died complete or their germination or growth was completely inhibited; conditions: foliar spray, 4 days after application, index 0 to 10
Protocol: as §3

[10] = test system: Broadleaf signalgrass (Brachiaria platyphylla); experiment: as above; set-up: key: 0: no or little difference in the degree of germination or growth between the treated and the untreated tested plants at the time of examination; 10: the test plants died complete or their germination or growth was completely inhibited; conditions: foliar spray, 4 days after application, index 0 to 10
Protocol: as §3

[11] = test system: Giant foxtail (Setaria faberi); experiment: as above; set-up: key: 0: no or little difference in the degree of germination or growth between the treated and the untreated tested plants at the time of examination; 10: the test plants died complete or their germination or growth was completely inhibited; conditions: foliar spray, 4 days after application, index 0 to 10
Protocol: as §3

[12] = test system: barnyardgrass (Echinochloa crus-galli); experiment: as above; set-up: key: 0: no or little difference in the degree of germination or growth between the treated and the untreated tested plants at the time of examination; 10: the test plants died complete or their germination or growth was completely inhibited; conditions: foliar spray, 4 days after application, index 0 to 10
Protocol: as §3

wild oat (Avena fatua) = experiment: as above; set-up: key: 0: no or little difference in the degree of germination or growth between the treated and the untreated tested plants at the time of examination; 10: the test plants died complete or their germination or growth was completely inhibited; conditions: foliar spray, 4 days after application, index 0 to 10
Protocol: as §3

[13] = test system: Ivyleaf morningglory (Ipomoea hederacea); experiment: Test Example 4: soil surface treatment, herbicidal activity; conditions: sprayed over the surface of the soil, 2000 g/ha, 7 days after application
Source text: as §1, with “theophrasti),” for “theophrasti) and”, “crus-galli) and blackgrass (Alopecurus myosuroides).” for “crus-galli).”, “3-2,3-11, 3-12, 3-16, 3-20” for “1-1,2-1”, “3-198” for “3-1”

[14] = test system: velvetleaf (Abutilon theophrasti); experiment: as above; conditions: sprayed over the surface of the soil, 2000 g/ha, 7 days after application
Source text: as §1, with “theophrasti),” for “theophrasti) and”, “crus-galli) and blackgrass (Alopecurus myosuroides).” for “crus-galli).”, “3-2,3-11, 3-12, 3-16, 3-20” for “1-1,2-1”, “3-198” for “3-1”

[15] = test system: barnyardgrass (Echinochloa crus-galli); experiment: as above; conditions: sprayed over the surface of the soil, 2000 g/ha, 7 days after application
Source text: as §1, with “theophrasti),” for “theophrasti) and”, “crus-galli) and blackgrass (Alopecurus myosuroides).” for “crus-galli).”, “3-2,3-11, 3-12, 3-16, 3-20” for “1-1,2-1”, “3-198” for “3-1”

[16] = test system: blackgrass (Alopecurus myosuroides); experiment: as above; conditions: sprayed over the surface of the soil, 2000 g/ha, 7 days after application
Source text: as §1, with “theophrasti),” for “theophrasti) and”, “crus-galli) and blackgrass (Alopecurus myosuroides).” for “crus-galli).”, “3-2,3-11, 3-12, 3-16, 3-20” for “1-1,2-1”, “3-198” for “3-1”

| SMILES | growth of Ivyleaf morningglory [4] | growth of velvetleaf [5] | growth of barnyardgrass [6] | growth of blackgrass [7] | Herbicidal activity J ([8]; 0.33 g/ha) | Herbicidal activity J ([8]; 1 g/ha) | Herbicidal activity J ([8]; 3.3 g/ha) | Herbicidal activity LC ([9]; 0.33 g/ha) | Herbicidal activity LC ([9]; 1 g/ha) | Herbicidal activity LC ([9]; 3.3 g/ha) | Herbicidal activity BC ([10]; 0.33 g/ha) | Herbicidal activity BC ([10]; 1 g/ha) | Herbicidal activity BC ([10]; 3.3 g/ha) | Herbicidal activity GF ([11]; 0.33 g/ha) | Herbicidal activity GF ([11]; 1 g/ha) | Herbicidal activity GF ([11]; 3.3 g/ha) | Herbicidal activity B ([12]; 0.33 g/ha) | Herbicidal activity B ([12]; 1 g/ha) | Herbicidal activity B ([12]; 3.3 g/ha) | Herbicidal activity W (wild oat (Avena fatua); 0.33 g/ha) | further results |
| --- | --- | --- | --- | --- | --- | --- | --- | --- | --- | --- | --- | --- | --- | --- | --- | --- | --- | --- | --- | --- | --- |
| COC(=O)C(C)Oc1ccc(Oc2cc(-n3c(=O)cc(C(F)(F)F)n(C)c3=O)c(F)cc2Cl)cc1 (centres unmarked) [Compound 1-1, methyl 2-[4-{2-chloro-4-fluoro-5-[3-methyl-2,6-dioxo-4-(trifluoromethyl)-1,2,3,6-tetrahydropyrimidin-1-yl]phenoxy}phenoxy]propionate] | completely controlled | completely controlled | completely controlled | completely controlled |  |  |  |  |  |  |  |  |  |  |  |  |  |  |  |  | emergence of Ivyleaf morningglory [1]: completely controlled; emergence of velvetleaf [2]: completely controlled; emergence of barnyardgrass [3]: completely controlled |
| COC(=O)c1ccccc1Oc1cc(-n2c(=O)cc(C(F)(F)F)n(C)c2=O)c(F)cc1C#N [C, reference compound] |  |  |  |  | 2 | 4 | 6 | 2 | 3 | 5 | 2 | 3 | 6 | 1 | 3 | 4 | 1 | 4 | 6 | 1 | Herbicidal activity W (wild oat (Avena fatua); 1 g/ha): 3; Herbicidal activity W (wild oat (Avena fatua); 3.3 g/ha): 5 |
| COC(=O)C(C)Oc1ccccc1Oc1cc(-n2c(=O)cc(C(F)(F)F)n(C)c2=O)c(F)cc1Cl (centres unmarked) [Compound 3-1, methyl 2-[2-{2-chloro-4-fluoro-5-[3-methyl-2,6-dioxo-4-(trifluoromethyl)-1,2,3,6-tetrahydropyrimidin-1-yl]phenoxy}phenoxy]propionate] | completely controlled | completely controlled | completely controlled | completely controlled |  |  |  |  |  |  |  |  |  |  |  |  |  |  |  |  | emergence of Ivyleaf morningglory [1]: completely controlled; emergence of velvetleaf [2]: completely controlled; emergence of barnyardgrass [3]: completely controlled |
| CCOC(=O)COc1ccccc1Oc1cc(-n2c(=O)cc(C(F)(F)F)n(C)c2=O)c(F)cc1Cl [Compound 3-12, Ethyl [2-{2-chloro-4-fluoro-5-[3-methyl-2,6-dioxo-4-(trifluoromethyl)-1,2,3,6-tetrahydropyrimidin-1-yl]phenoxy}phenoxy]acetate] | completely controlled | completely controlled | completely controlled | completely controlled |  |  |  |  |  |  |  |  |  |  |  |  |  |  |  |  | emergence of Ivyleaf morningglory [13]: completely controlled; emergence of velvetleaf [14]: completely controlled; emergence of barnyardgrass [15]: completely controlled; emergence of blackgrass [16]: completely controlled |
| CCOC(=O)C(C)Oc1ccccc1Oc1cc(-n2c(=O)cc(C(F)(F)F)n(C)c2=O)c(F)cc1Cl (centres unmarked) [Compound 3-2, Ethyl 2-[2-{2-chloro-4-fluoro-5-[3-methyl-2,6-dioxo-4-(trifluoromethyl)-1,2,3,6-tetrahydropyrimidin-1-yl]phenoxy}phenoxy]propionate] | completely controlled | completely controlled | completely controlled | completely controlled |  |  |  |  |  |  |  |  |  |  |  |  |  |  |  |  | emergence of Ivyleaf morningglory [13]: completely controlled; emergence of velvetleaf [14]: completely controlled; emergence of barnyardgrass [15]: completely controlled; emergence of blackgrass [16]: completely controlled |
| COC(=O)COc1ccccc1Oc1cc(-n2c(=O)cc(C(F)(F)F)n(C)c2=O)c(F)cc1Cl [Compound 3-11, Methyl [2-{2-chloro-4-fluoro-5-[3-methyl-2,6-dioxo-4-(trifluoromethyl)-1,2,3,6-tetrahydropyrimidin-1-yl]phenoxy}phenoxy]acetate] | completely controlled | completely controlled | completely controlled | completely controlled | 8 | 9 | 10 | 8 | 9 | 10 | 8 | 9 | 10 | 8 | 9 | 9 | 7 | 8 | 10 | 8 | emergence of Ivyleaf morningglory [13]: completely controlled; emergence of velvetleaf [14]: completely controlled; emergence of barnyardgrass [15]: completely controlled; emergence of blackgrass [16]: completely controlled; Herbicidal activity W (wild oat (Avena fatua); 1 g/ha): 10; Herbicidal activity W (wild oat (Avena fatua); 3.3 g/ha): 10 |
| COC(=O)COc1ccccc1Oc1cc(-n2c(=O)cc(C(F)(F)F)n(C)c2=O)c(F)cc1C#N [Compound 4-22] |  |  |  |  | 8 | 8 | 9 | 9 | 9 | 9 | 8 | 8 | 9 | 7 | 8 | 10 | 8 | 9 | 9 | 8 | Herbicidal activity W (wild oat (Avena fatua); 1 g/ha): 9; Herbicidal activity W (wild oat (Avena fatua); 3.3 g/ha): 10 |
| COc1ccccc1Oc1cc(-n2c(=O)cc(C(F)(F)F)n(C)c2=O)c(F)cc1C#N [B, reference compound] |  |  |  |  | 2 | 7 | 7 | 3 | 7 | 8 | 2 | 6 | 8 | 3 | 5 | 7 | 2 | 6 | 7 | 2 | Herbicidal activity W (wild oat (Avena fatua); 1 g/ha): 5; Herbicidal activity W (wild oat (Avena fatua); 3.3 g/ha): 7 |
